The record followed here is ChEMBL document CHEMBL1124164, “Synthesis and estrogen receptor selectivity of 1,1-bis(4-hydroxyphenyl)-2-(p-halophenyl)ethylenes” (J Med Chem, 1988).

Each structure is given as a SMILES string.

In data set [1] the target is T1, Estrogen receptor (Rattus norvegicus, UniProt P06211+Q62986). Nature of the data set: In vitro displacement of [3H]estradiol from estrogen receptor of rat uterine cystol. Type of data set: protein assay. In general terms: Loss of bound radioactivity is the signal in a displacement assay; it reports binding, not function.
Data set [2] concerns Rattus norvegicus. Nature of the data set: Distribution of radiolabeled compound in intestinal contents of rat 1 hr after ip administration of dose; fmol equivalents per 100 mg. Type of data set: ADME, organism-based. Conditions: in vivo.
The test system of data set [3] is Rattus norvegicus. Nature of the data set: Distribution of radiolabeled compound in intestinal contents of rat 1 hr after iv administration of dose; fmol equivalents per 100 mg. Type of data set: ADME, organism-based. The conditions noted are these: in vivo.
Data set [4] relates to Rattus norvegicus. Nature of the data set: Distribution of radiolabeled compound in intestinal contents of rat 4 hr after ip administration of dose; fmol equivalents per 100 mg. Conditions: in vivo. Type of data set: ADME, organism-based.
Data set [5] relates to Rattus norvegicus. Nature of the data set: Distribution of radiolabeled compound in liver of rat 1 hr after ip administration of dose and excess 8 microg of estradiol; fmol equivalents per 100 mg. Type of data set: ADME, organism-based. The conditions noted are these: in vivo.
Data set [6] has as its system Rattus norvegicus. Nature of the data set: Distribution of radiolabeled compound in liver of rat 1 hr after ip administration of dose; fmol equivalents per 100 mg. Type of data set: ADME, organism-based. The conditions noted are these: in vivo.
In data set [7] the test system is Rattus norvegicus. Nature of the data set: Distribution of radiolabeled compound in liver of rat 1 hr after iv administration of dose; fmol equivalents per 100 mg. Type of data set: ADME, organism-based. The conditions noted are these: in vivo.
For data set [8], the system named is Rattus norvegicus. Nature of the data set: Distribution of radiolabeled compound in liver of rat 4 hr after ip administration of dose; fmol equivalents per 100 mg. The conditions noted are these: in vivo. Type of data set: ADME, organism-based.
The test system of data set [9] is Rattus norvegicus. Nature of the data set: Distribution of radiolabeled compound in liver of rat 8 hr after ip administration of dose; fmol equivalents per 100 mg. Type of data set: ADME, organism-based. The conditions noted are these: in vivo.
The subject of data set [10] is Rattus norvegicus. Nature of the data set: Distribution of radiolabeled compound in plasma of rat 1 hr after ip administration of dose and excess 8 microg of estradiol; fmol equivalents per 100 mg. Type of data set: ADME, organism-based. Conditions: in vivo.
Data set [11] deals with Rattus norvegicus. Nature of the data set: Distribution of radiolabeled compound in plasma of rat 1 hr after iv administration of dose; fmol equivalents per 100 mg. Type of data set: ADME, organism-based. Conditions: in vivo.
The test system of data set [12] is Rattus norvegicus. Nature of the data set: Distribution of radiolabeled compound in plasma of rat 4 hr after ip administration of dose; fmol equivalents per 100 mg. Conditions: in vivo. Type of data set: ADME, organism-based.
Data set [13] relates to Rattus norvegicus. Nature of the data set: Distribution of radiolabeled compound in plasma of rat 8 hr after ip administration of dose; fmol equivalents per 100 mg. Conditions: in vivo. Type of data set: ADME, organism-based.
In data set [14] the test system is Rattus norvegicus. Nature of the data set: Distribution of radiolabeled compound in uterus of rat 1 hr after ip administration of dose; fmol equivalents per 100 mg. Conditions: in vivo. Type of data set: ADME, organism-based.
Data set [15] deals with Rattus norvegicus. Nature of the data set: Distribution of radiolabeled compound in uterus of rat 1 hr after ip administration of dose and excess 8 microg of estradiol; fmol equivalents per 100 mg. Type of data set: ADME, organism-based. The conditions noted are these: in vivo.
The test system of data set [16] is Rattus norvegicus. Nature of the data set: Distribution of radiolabeled compound in uterus of rat 1 hr after iv administration of dose; fmol equivalents per 100 mg. Type of data set: ADME, organism-based. Conditions: in vivo.
Data set [17] deals with Rattus norvegicus. Nature of the data set: Distribution of radiolabeled compound in uterus of rat 4 hr after ip administration of dose; fmol equivalents per 100 mg. Type of data set: ADME, organism-based. The conditions noted are these: in vivo.
The subject of data set [18] is Rattus norvegicus. Nature of the data set: Distribution of radiolabeled compound in uterus of rat 8 hr after ip administration of dose; fmol equivalents per 100 mg. Type of data set: ADME, organism-based. The conditions noted are these: in vivo.
Data set [19] relates to Rattus norvegicus. Nature of the data set: Distribution of radiolabeled compound in plasma of rat 1 hr after ip administration of dose. Conditions: in vivo. Type of data set: ADME, organism-based.
The subject of data set [20] is Rattus norvegicus. Nature of the data set: Distribution of radiolabeled compound in intestinal contents of rat 1 hr after ip administration of dose and excess 8 microg of estradiol; fmol equivalents per 100 mg. Type of data set: ADME, organism-based. The conditions noted are these: in vivo.
For data set [21], the species on record is Rattus norvegicus. Nature of the data set: Effect of Beta Glucuronidase on recovery of 3H associated with compound from rat intestinal contents. Type of data set: ADME, organism-based. Conditions: in vivo.
The species entered for data set [22] is Rattus norvegicus. Nature of the data set: Effect of Beta Glucuronidase on recovery of 3H associated with compound from rat liver. Type of data set: ADME, organism-based. Conditions: in vivo.
For data set [23], the species on record is Rattus norvegicus. Nature of the data set: Effect of Beta Glucuronidase on recovery of 3H associated with compound from rat plasma. Type of data set: ADME, organism-based.
The species named for data set [24] is Rattus norvegicus. Nature of the data set: Effect of Beta Glucuronidase on recovery of 3H associated with compound from rat uterus. Conditions: in vivo. Type of data set: ADME, organism-based.
The species entered for data set [25] is Rattus norvegicus. Nature of the data set: Relative recovery of 3H associated with compound from rat Intestinal contents. Type of data set: ADME, organism-based. The conditions noted are these: in vivo.
The species entered for data set [26] is Rattus norvegicus. Nature of the data set: Relative recovery of 3H associated with compound from rat liver. Type of data set: ADME, organism-based. The conditions noted are these: in vivo.
For data set [27], the species on record is Rattus norvegicus. Nature of the data set: Relative recovery of 3H associated with compound from rat plasma. Type of data set: ADME, organism-based.
The species entered for data set [28] is Rattus norvegicus. Nature of the data set: Relative recovery of 3H associated with compound from rat uterus. Type of data set: ADME, organism-based. The conditions noted are these: in vivo.
Data set [29] addresses T2, Estrogen receptor (Rattus norvegicus) (UniProt P06211+Q62986). Nature of the data set: Ratio of specific binding to non-specific binding at rat estrogen receptor. Type of data set: protein assay.
Data set [30] relates to Rattus norvegicus. Nature of the data set: Distribution of radiolabeled compound in intestinal contents of rat 8 hr after ip administration of dose; fmol equivalents per 100 mg. Type of data set: ADME, organism-based. Conditions: in vivo.
Data set [31] concerns the target T2, Estrogen receptor (Rattus norvegicus). The conditions noted are these: Uterus, Cytosol.
Description: Non specific binding to estrogen receptor in rat uterine cytosol using unlabeled ligand
For data set [32] the target is unchanged. The conditions noted are these: Uterus, Cytosol. The source holds these as a separate data set.
Data set [33] deals with T1, Estrogen receptor.
Description: In vitro displacement of 3 nM [3H]4-hydroxytamoxifen from estrogen receptor of rat uterine cystol
Data set [34] has as its target T2, Estrogen receptor (Rattus norvegicus).
Description: Non specific binding to estrogen receptor in rat uterine cytosol(+/-SD)
Data set [35] has the same target. The source holds these as a separate data set.
Description: Specific binding to estrogen receptor in rat uterine cytosol(+/-SD)
For data set [36] the target is unchanged. The source holds these as a separate data set.

In general, EC50 refers to the concentration that produces a half-maximal response. Read a low EC50 as a more potent agent. At Estrogen receptor [1], `Oc1ccc(C(=Cc2ccccc2)c2ccc(O)cc2)cc1` yielded an EC50 of 3.2 nM.
Take `Oc1ccc(C(=C(Cl)c2ccccc2)c2ccc(O)cc2)cc1`: at Estrogen receptor [1], the EC50 is given as 4.5 nM.
As for `Oc1ccc(C(=Cc2ccc(F)cc2)c2ccc(O)cc2)cc1`, the Distribution with Rattus norvegicus [2] was 2360 fM/mg; in the data set on Rattus norvegicus [3], 3269 fM/mg; in the data set with Rattus norvegicus [4], 834 fM/mg; in the data set on Rattus norvegicus [5], 373 fM/mg; in the data set with Rattus norvegicus [6], 251 fM/mg; with Rattus norvegicus [7], 318 fM/mg. For the same compound, the Distribution in the data set with Rattus norvegicus [8] is 97 fM/mg; in the data set with Rattus norvegicus [9] it was 61 fM/mg; in the data set with Rattus norvegicus [10], 198 fM/mg; in the data set with Rattus norvegicus [11] it was 144 fM/mg; in the data set with Rattus norvegicus [12] it was 56 fM/mg; in the data set on Rattus norvegicus [13], 46 fM/mg. Also, the Distribution in the data set with Rattus norvegicus [14] was 496 fM/mg; in the data set on Rattus norvegicus [15], 302 fM/mg; with Rattus norvegicus [16] it was 429 fM/mg; with Rattus norvegicus [17] it was 196 fM/mg; in the data set on Rattus norvegicus [18], 87 fM/mg; with Rattus norvegicus [19] it was 122 fM/mg. Further, the figures for the Distribution in the data set on Rattus norvegicus [20] and in the data set on Rattus norvegicus [30] were 880 fM/mg and 665 fM/mg, respectively. Besides, the Recovery in the data set listed under Rattus norvegicus [21] is 95.4%; in the data set listed under Rattus norvegicus [22], 75.9%; in the data set listed under Rattus norvegicus [23], 92.1%; in the data set listed under Rattus norvegicus [24], 95.9%; in the data set listed under Rattus norvegicus [25] it was 5.3%; in the data set filed under Rattus norvegicus [26] it was 15.7%. Further, the Recovery in the data set filed under Rattus norvegicus [27] worked out at 28.7%; in the data set filed under Rattus norvegicus [28], 84.5%. For the same compound, the values for the EC50 at Estrogen receptor [1] and on Estrogen receptor [33] were 2.9 nM and 170 nM, respectively. Further, in data set [29], the S/N was determined as 3.2. Moreover, the Binding was found to be 305 fM uterus-1 in data set [31] and 971 fM uterus-1 in [32].
For `Oc1ccc(C(=Cc2ccc(I)cc2)c2ccc(O)cc2)cc1`, the values for the EC50 at Estrogen receptor [1] and at Estrogen receptor [33] were 3.3 nM and 9.5 nM, respectively.
Compound `Oc1ccc(C(=Cc2ccc(Br)cc2)c2ccc(O)cc2)cc1` came in with an EC50 on Estrogen receptor [1] of 10.4 nM.
With `CCC(=C(c1ccc(O)cc1)c1ccc(OCCN(C)C)cc1)c1ccccc1`, the results for the Binding in [34] and in [35] were 475 fM uterus-1 and 1080 fM uterus-1, respectively. This compound also displayed an EC50 on Estrogen receptor [33] of 6 nM. Also, the S/N in data set [36] came out at 2.3.
